Results from ChEMBL document CHEMBL1201862, “PubChem BioAssay data set” (2004).
Calls of active or inactive are those of the source.

How the values were obtained:
[1] = reduction of Shn3 3'UTR-driven luciferase in osteoblasts – cell-based, Clone20 osteoblasts, firefly luciferase, cherry-picked, dose response (AID 624132); format: functional;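 note: firefly luciferase luminescence from reporter carrying the Shn3 3'UTR in osteoblasts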
[2] = Shn3 3'UTR reporter signal decrease – cell-based, Clone20 osteoblasts, firefly luciferase, cherry-pick, set 2, Schnurri-3 inhibitor project, dose response (AID 720490); format: functional;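 note: actives lower the luminescence signal as inhibitors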
[3] = Late stage counterscreen for inhibitors of Trypanosoma brucei methionyl tRNA synthetase (MetRS): Luminescence-based cell-based high throughput dose response assay to identify compounds that are cytotoxic to Jurkat human T lymphocyte cells.; format: functional
Aminopeptidase N = target: T1, Aminopeptidase N (Plasmodium falciparum FcB1/Columbia, UniProt O96935); assay: malaria alanyl aminopeptidase activity blockers – biochemical, fluorogenic H-Leu-NHMec substrate, 1536-well (AID 1445); set-up: species or system Plasmodium falciparum 3D7, 3D7
T1 sequence (O96935 whole entry): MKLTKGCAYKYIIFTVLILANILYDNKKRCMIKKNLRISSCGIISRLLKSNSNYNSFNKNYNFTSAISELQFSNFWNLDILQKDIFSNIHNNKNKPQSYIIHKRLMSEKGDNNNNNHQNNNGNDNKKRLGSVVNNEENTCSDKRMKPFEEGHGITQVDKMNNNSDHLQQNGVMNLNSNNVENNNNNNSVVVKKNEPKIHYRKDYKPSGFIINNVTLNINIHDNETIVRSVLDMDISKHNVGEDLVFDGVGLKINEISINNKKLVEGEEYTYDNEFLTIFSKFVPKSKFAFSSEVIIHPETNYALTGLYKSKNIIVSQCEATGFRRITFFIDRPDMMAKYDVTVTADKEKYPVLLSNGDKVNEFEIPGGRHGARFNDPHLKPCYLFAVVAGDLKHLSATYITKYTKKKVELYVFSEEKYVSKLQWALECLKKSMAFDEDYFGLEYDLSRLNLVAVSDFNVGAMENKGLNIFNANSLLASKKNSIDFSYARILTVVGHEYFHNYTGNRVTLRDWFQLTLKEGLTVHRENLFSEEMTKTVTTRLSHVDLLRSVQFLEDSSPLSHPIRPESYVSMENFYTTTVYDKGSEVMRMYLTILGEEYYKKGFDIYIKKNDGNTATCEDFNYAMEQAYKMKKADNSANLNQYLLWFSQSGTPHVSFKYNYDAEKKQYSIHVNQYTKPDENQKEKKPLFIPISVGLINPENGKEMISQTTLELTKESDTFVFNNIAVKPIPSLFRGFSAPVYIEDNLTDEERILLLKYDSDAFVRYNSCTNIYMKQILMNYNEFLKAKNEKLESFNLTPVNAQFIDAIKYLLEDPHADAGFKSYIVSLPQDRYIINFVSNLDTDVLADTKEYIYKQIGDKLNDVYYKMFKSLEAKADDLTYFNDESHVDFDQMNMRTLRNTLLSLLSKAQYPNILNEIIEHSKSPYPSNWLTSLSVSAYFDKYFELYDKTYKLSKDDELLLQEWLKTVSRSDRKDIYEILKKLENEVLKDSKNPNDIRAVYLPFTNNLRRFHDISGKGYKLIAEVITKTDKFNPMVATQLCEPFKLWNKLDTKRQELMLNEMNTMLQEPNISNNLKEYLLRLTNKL

[4] = general mammalian cell viability loss – inhibitor set, cherry-pick, set 2, cytotoxicity control for miR-122 modulator project, dose response (AID 720697); format: functional, cell-based
[5] = activation of miR-122 Renilla sensor silencing – cell-based, Huh7 psiCHECK-miR122, Renilla luciferase, cherry-picked, dose response (AID 651956); format: functional;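 note: huh7 hepatoma cells stably carrying a psiCHECK-2 miR-122 sensor plasmid; renilla luciferase signal reporting endogenous miR-122 activity after 48 h compound exposure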
Kallikrein-7 = Kallikrein-7 (Homo sapiens, UniProt P49862); assay: Fluorescence Intensity-based biochemical primary high throughput dose response assay to identify activators of kallikrein-7 (K7) zymogen.
Paired box protein Pax-8 = Paired box protein Pax-8 (Homo sapiens, UniProt Q06710); assay: PAX8 transcriptional activity inhibition in RMG-I – RMG-I cells, luciferase, cherry-pick, dose response (AID 687027); format: functional, cell-based;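 note: luciferase reporter driven by Pax8 target thyroperoxidase promoter measured by SteadyGlo luminescence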
[6] = target: Tyrosyl-DNA phosphodiesterase 2 (Homo sapiens, UniProt O95551); assay: potency against TDP2 phosphodiesterase activity – biochemical, epi absorbance, IC50, dose response (AID 743297)
[7] = target: 1-phosphatidylinositol 4,5-bisphosphate phosphodiesterase beta-3 (Homo sapiens, UniProt Q01970); assay: Fluorescence-based biochemical high throughput dose response assay to identify inhibitors of phospholipase C isozymes (PLC-B3).
[8] = general cell-killing toxicity readout – plate reader, dry powder samples, cytotoxicity control for PAX8 inhibitor project, dose response (AID 743021); format: functional, cell-based
[9] = target: 1-phosphatidylinositol 4,5-bisphosphate phosphodiesterase gamma-1 (Homo sapiens, UniProt P19174); assay: Counterscreen for inhibitors of phospholipase C isozymes (PLC-B3): Fluorescence-based biochemical high throughput dose response assay to identify inhibitors of phospholipase C isozymes (PLC-gamma1).
Hexokinase HKDC1 = target: T2, Hexokinase HKDC1 (Homo sapiens, UniProt Q2TB90); assay: activation of HKDC1 glucose phosphorylation – biochemical, W721R variant, dose response (AID 504730); format: functional
T2 sequence (Q2TB90 whole entry): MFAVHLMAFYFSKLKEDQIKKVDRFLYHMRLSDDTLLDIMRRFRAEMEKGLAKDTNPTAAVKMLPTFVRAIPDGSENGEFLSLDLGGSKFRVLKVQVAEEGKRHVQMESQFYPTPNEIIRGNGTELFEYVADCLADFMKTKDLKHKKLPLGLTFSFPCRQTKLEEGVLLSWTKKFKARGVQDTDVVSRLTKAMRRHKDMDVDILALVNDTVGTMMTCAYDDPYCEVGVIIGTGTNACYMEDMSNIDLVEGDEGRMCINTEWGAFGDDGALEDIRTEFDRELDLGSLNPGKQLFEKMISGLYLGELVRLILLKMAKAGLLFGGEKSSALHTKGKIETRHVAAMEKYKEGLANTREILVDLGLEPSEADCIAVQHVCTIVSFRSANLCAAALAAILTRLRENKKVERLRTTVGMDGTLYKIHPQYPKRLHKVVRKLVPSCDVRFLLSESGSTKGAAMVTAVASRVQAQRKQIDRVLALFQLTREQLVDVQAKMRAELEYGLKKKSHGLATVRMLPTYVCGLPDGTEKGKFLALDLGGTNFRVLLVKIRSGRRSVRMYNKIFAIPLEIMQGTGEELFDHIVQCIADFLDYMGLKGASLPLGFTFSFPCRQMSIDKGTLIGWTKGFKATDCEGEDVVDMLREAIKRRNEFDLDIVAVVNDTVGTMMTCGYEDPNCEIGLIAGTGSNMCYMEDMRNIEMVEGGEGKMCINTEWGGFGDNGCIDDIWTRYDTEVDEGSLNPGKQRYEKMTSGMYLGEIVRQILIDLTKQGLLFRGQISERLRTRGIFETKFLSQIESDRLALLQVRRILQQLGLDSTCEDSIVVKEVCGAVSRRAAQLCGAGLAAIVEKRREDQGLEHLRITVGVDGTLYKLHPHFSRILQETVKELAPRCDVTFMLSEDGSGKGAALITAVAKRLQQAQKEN

Hexokinase-1 = target: T3, Hexokinase-1 (Homo sapiens, UniProt P19367); assay: HK1 enzyme activation by HKDC1 hits – biochemical, selectivity assay for HKDC1 activator project, dose response (AID 504762); format: functional
T3 sequence (P19367 whole entry): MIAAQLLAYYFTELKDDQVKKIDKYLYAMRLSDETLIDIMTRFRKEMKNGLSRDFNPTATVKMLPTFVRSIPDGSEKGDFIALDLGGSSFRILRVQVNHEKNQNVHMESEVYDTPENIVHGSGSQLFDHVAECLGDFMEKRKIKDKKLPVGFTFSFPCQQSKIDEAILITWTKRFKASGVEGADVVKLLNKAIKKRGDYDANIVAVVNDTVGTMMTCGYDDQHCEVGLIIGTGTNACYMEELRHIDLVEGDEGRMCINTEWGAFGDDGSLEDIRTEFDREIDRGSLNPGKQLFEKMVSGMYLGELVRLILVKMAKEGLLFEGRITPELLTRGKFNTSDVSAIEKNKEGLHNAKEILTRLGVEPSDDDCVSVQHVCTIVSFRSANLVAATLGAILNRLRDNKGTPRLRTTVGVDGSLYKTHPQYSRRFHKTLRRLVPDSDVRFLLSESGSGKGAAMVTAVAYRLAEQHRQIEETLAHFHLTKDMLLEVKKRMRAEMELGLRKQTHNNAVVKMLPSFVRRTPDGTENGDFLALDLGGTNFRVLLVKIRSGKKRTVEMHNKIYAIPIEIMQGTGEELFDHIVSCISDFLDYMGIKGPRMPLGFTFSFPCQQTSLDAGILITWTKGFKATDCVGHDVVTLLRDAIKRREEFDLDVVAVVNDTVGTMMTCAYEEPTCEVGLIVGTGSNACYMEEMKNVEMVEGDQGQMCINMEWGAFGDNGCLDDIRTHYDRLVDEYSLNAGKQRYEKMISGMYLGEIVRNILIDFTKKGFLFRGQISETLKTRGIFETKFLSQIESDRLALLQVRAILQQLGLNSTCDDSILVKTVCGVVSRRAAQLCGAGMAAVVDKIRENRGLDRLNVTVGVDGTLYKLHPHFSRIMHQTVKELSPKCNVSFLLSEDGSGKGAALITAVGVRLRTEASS

[10] = target: T4, Histone-lysine N-methyltransferase NSD2 (Homo sapiens, UniProt O96028); format: biochemical
T4 sequence (O96028 whole entry): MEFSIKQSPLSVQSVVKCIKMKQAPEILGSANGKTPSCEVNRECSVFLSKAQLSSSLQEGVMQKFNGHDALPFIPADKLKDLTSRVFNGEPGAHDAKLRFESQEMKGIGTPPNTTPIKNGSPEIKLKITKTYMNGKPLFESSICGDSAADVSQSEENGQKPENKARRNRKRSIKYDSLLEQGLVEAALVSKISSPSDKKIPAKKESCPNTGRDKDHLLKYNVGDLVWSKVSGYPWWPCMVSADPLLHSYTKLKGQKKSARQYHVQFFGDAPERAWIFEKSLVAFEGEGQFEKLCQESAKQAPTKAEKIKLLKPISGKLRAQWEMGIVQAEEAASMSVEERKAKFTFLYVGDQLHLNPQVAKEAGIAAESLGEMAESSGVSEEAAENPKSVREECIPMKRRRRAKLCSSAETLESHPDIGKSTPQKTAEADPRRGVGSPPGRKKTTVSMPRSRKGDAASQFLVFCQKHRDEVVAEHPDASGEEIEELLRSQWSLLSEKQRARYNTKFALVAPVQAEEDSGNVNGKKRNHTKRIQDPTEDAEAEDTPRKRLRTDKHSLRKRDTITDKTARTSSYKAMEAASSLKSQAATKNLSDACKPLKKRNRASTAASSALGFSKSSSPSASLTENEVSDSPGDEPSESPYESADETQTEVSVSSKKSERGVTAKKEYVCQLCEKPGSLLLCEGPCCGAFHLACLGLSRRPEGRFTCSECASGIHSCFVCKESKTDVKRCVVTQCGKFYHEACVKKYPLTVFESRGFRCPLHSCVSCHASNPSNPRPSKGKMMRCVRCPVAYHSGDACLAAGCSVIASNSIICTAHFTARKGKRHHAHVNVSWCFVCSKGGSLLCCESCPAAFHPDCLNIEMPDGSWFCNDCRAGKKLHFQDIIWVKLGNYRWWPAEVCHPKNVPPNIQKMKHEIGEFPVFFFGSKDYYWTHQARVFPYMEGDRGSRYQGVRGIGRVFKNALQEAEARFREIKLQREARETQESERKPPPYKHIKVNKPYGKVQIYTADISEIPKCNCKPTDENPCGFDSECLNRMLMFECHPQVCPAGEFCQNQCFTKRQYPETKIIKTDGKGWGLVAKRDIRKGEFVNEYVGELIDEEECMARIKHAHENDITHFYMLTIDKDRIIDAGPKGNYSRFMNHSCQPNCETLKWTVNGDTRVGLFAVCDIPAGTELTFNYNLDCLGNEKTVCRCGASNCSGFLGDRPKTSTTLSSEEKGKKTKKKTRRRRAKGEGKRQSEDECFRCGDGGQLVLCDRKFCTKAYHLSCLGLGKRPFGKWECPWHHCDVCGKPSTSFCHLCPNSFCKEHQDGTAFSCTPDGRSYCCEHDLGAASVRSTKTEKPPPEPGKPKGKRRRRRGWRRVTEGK

[11] = target: NAD-dependent protein deacylase sirtuin-5, mitochondrial (Homo sapiens, UniProt Q9NXA8); assay: blockers of sirtuin-5 peptide desuccinylation – biochemical, fluorescence imaging, cherry-pick, set 6, dose response (AID 720597)
[12] = reduced cellular PGC1a acetyl-lysine signal – cell-based, cherry-picked samples, dose response (AID 720514); format: functional;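 note: potency may reflect raised or lowered acetylation signal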
[13] = viability loss in MITF-independent A375 cells – cell-based, CellTiter-Glo luminescence, dry powder, set 2, counter-screen for MITF inhibitor project, dose response (AID 624489); format: functional; details: A-375;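 note: actives are compounds lowering A375 viability meaning general cytotoxicity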
[14] = cytotoxicity in MITF-independent A375 cells – cell-based, CellTiter-Glo luminescence, dry powder, set 4, counter-screen for MITF inhibitor project, dose response (AID 624364); format: functional; details: A-375;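 note: A375 melanoma cells are MITF independent so this is a counter screen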
[15] = liver cell line viability loss – HepG2, luminescence plate reader, powder samples, set 2, cytotoxicity control, dose response (AID 651860); format: functional, cell-based

Paired box protein Pax-8, sequence (Q06710 whole entry): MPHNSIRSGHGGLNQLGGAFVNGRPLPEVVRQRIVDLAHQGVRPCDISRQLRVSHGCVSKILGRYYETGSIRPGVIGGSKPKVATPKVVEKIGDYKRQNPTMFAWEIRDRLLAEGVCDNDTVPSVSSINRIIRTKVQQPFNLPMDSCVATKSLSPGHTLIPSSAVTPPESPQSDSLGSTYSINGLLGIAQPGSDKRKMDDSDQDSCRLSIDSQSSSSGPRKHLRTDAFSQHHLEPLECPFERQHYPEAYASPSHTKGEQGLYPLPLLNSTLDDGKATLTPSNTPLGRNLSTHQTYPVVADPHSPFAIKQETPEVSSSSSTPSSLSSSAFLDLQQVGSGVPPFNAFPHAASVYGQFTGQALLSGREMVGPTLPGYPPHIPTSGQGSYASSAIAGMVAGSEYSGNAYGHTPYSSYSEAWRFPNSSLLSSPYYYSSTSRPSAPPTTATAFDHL
Tyrosyl-DNA phosphodiesterase 2, sequence (O95551 whole entry): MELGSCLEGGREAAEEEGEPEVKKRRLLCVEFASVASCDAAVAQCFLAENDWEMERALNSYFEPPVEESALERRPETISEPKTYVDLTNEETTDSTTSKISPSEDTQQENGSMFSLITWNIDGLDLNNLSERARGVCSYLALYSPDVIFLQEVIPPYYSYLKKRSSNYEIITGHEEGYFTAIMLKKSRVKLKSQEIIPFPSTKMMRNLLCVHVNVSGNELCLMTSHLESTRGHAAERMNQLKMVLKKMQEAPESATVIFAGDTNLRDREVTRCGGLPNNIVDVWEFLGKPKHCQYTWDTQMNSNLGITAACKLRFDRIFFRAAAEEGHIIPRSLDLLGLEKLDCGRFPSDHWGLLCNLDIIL
NAD-dependent protein deacylase sirtuin-5, mitochondrial, sequence (Q9NXA8 whole entry): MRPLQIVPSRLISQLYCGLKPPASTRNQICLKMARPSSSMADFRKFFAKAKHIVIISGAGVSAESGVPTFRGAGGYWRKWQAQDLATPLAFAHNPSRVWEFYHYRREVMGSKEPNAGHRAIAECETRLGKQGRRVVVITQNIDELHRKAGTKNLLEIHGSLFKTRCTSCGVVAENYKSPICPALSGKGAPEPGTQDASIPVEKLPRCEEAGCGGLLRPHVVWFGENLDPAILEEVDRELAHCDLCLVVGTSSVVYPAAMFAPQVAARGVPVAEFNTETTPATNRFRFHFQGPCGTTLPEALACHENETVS
Kallikrein-7, sequence (P49862 whole entry): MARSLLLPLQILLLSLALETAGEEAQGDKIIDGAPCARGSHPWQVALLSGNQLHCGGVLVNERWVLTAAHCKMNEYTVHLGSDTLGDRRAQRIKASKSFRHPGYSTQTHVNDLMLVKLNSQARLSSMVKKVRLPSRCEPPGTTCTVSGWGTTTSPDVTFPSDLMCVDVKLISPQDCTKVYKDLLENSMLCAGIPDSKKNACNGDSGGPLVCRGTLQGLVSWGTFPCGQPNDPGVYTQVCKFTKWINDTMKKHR
1-phosphatidylinositol 4,5-bisphosphate phosphodiesterase gamma-1, sequence (P19174 whole entry): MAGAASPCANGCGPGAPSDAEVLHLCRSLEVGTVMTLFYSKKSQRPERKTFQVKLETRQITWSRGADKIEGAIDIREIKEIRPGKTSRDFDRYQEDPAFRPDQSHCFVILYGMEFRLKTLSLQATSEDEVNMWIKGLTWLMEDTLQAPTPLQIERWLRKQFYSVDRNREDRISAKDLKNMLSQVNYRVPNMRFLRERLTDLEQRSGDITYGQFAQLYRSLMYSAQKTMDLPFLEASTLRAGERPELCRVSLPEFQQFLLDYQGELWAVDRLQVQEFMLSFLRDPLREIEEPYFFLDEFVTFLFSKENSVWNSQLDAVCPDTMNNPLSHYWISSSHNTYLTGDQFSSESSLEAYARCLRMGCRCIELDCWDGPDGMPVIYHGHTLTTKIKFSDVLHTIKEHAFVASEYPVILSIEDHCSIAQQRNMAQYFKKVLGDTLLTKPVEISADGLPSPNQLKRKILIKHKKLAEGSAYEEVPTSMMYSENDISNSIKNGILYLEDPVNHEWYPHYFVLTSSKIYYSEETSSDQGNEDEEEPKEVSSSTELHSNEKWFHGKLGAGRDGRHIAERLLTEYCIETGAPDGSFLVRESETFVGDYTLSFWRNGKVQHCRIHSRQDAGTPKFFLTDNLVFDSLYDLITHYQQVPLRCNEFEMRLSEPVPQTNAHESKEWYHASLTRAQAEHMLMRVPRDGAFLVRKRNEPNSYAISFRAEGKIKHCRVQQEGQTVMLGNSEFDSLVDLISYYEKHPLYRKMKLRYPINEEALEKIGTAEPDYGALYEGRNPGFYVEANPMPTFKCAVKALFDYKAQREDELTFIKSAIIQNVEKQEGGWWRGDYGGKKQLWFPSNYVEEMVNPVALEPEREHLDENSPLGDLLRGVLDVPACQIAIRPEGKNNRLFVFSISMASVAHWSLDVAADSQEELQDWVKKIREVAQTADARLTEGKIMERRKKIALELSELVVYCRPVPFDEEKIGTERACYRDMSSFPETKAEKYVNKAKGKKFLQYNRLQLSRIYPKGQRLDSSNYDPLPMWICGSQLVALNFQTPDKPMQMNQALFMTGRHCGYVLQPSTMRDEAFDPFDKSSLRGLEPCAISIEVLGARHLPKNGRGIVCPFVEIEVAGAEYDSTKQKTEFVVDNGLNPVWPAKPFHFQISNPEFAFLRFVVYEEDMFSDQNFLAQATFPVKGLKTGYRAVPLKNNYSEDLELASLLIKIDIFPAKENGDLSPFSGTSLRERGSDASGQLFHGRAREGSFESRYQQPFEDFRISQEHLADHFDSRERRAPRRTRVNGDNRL
1-phosphatidylinositol 4,5-bisphosphate phosphodiesterase beta-3, sequence (Q01970 whole entry): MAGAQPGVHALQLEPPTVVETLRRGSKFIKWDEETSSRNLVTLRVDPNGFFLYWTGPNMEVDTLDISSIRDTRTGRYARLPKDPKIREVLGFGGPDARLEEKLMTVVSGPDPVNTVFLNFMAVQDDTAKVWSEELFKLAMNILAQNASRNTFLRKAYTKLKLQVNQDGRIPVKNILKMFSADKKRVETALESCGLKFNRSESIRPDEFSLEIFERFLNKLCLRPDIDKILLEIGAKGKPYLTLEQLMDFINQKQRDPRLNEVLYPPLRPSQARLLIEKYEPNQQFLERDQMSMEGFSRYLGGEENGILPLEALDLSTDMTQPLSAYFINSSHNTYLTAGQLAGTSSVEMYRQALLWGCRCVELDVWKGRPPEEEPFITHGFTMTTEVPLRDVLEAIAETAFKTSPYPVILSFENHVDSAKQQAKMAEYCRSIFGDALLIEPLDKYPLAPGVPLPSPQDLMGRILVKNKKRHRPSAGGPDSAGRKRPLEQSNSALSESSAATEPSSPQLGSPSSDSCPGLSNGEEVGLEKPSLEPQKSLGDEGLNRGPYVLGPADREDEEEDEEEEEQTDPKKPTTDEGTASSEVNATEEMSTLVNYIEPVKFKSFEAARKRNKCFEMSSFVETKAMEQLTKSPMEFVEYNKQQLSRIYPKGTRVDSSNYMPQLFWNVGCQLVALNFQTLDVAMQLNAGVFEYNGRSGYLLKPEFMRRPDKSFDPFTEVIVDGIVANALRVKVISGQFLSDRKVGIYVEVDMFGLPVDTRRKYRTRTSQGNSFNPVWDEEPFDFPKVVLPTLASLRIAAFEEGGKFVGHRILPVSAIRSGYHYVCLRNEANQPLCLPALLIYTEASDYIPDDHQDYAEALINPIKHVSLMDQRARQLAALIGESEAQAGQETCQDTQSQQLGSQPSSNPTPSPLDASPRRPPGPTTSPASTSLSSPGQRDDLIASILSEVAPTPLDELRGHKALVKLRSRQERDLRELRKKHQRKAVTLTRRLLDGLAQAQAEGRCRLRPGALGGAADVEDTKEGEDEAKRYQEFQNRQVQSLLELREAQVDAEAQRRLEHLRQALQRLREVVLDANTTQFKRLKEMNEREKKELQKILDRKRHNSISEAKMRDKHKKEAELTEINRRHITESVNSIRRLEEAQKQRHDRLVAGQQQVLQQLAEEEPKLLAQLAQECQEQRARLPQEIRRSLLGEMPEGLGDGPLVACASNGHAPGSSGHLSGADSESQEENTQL

With `CC(Oc1ccc(F)cc1)C(=O)N(CCC1=CCCCC1)c1c(N)n(Cc2ccccc2)c(=O)[nH]c1=O` (stereo not given) the AC50 [1] was 7.99 µM (active) and the AC50 [2] was 22.6 µM (active).
For `CC(CC(=O)Nc1cccc(Br)c1)=NNC(=O)c1ccc(O)cc1O`, the IC50 [3] was > 83.3 µM (inactive).
In the case of `Cc1cc(NS(=O)(=O)c2ccc(NC(=O)C(CC(C)C)N3C(=O)c4ccccc4C3=O)cc2)nc(C)n1` (stereo not given), the IC50 (Aminopeptidase N) is reported as 38 µM (active), the AC50 [4] is reported as 8.51 µM (active) and the AC50 [5] is reported as 49.8 µM (active).
With `CC(=O)Nc1ccc2[nH]c(-c3cccs3)nc2c1` the EC50 (Kallikrein-7) was 8.78 µM (active).
For `NC1=C(Cl)C(=O)c2ccc(S(N)(=O)=O)cc2C1=O`, the AC50 (Paired box protein Pax-8) was 1.47 µM (active), the IC50 [6] was 1.07 µM (active) and the IC50 [7] was > 122 µM (inactive). For the same compound, the AC50 [8] was 8.31 µM (active), the IC50 [9] was > 122 µM (inactive) and the EC50 (Hexokinase HKDC1) was > 80 µM (inactive). For the same compound, the EC50 (Hexokinase-1) was 1.06 µM (active) and the AC50 [10] was 0.144 µM (active).
With `C[C@@H]1CN([C@H](C)CO)C(=O)CCCn2nncc2CO[C@H]1CN(C)S(=O)(=O)c1ccc(Cl)cc1` the AC50 [11] was 26.7 µM (active).
With `CC(C)NC(=O)Nc1ccc2c(c1)C(=O)N([C@@H](C)CO)C[C@H](C)[C@@H](CN(C)C(=O)CCC(F)(F)F)OCCCC[C@@H](C)O2` the AC50 [12] was 38 µM (active).
For `O=C1C(NS(=O)(=O)c2cccs2)=C(N2CCCCC2)C(=O)c2ccccc21`, the AC50 [13] was > 70 µM (inactive) and the AC50 [14] was > 70 µM (inactive).
In the case of `NC(=O)[C@H]1CCCC[C@H]1C(=O)N1CCc2ccccc2[C@H]1CN1C(=O)c2ccccc2C1=O`, the AC50 [15] is reported as > 52 µM (inactive).
